Data reported in patent US20260216112A1, “ACETYLCYSTEINE-STABILIZED GOLD NANOCLUSTERS FOR ACUTE KIDNEY INJURY, AND PREPARATION METHOD AND APPLICATION THEREOF” (priority 2021, published 2026).

Legend:
[1] = hydroxyl radical antioxidant capacity (HORAC) kit; assay type: biochemical; conditions: concentration of 100 μg/mL; FIG. 4
[2] = superoxide anion removal, SOD assay kit; assay type: biochemical; conditions: concentration of 100 μg/mL; FIG. 5
Procedure: The efficiency of Au NCs-NAC in removing superoxide anions at different concentrations ([…]) was determined using the SOD assay kit (Sigma-Aldrich, USA). The test was conducted according to the instructions provided by the manufacture.

[3] = ABTS free radical cation discoloration method; assay type: biochemical; conditions: concentration of […] (so in the source); absorbance at 734 nm; FIG. 6
Procedure: The test for eliminating ABTS (2,2′-azino-bis(3-ethylbenzothiazoline-6-sulfonic acid)) free radicals by Au NCs-NAC.
The free radicals eliminating ability of Au NCs-NAC was tested using the ABTS free radical cation discoloration method. ABTS (7 mM) was dissolved in water, and 2.45 mM potassium persulfate was added to react for 12 hours to produce ABTS free radical cations (⋅ABTS+). Then, the absorbance values of the pure ⋅ABTS+solution (AB) and the mixed solution of different concentrations (12.5-100 μg/mL) of Au NCs-NAC and ⋅ABTS+ were measured at 734 nm. The formula for calculating ABTS eliminating efficiency is [(AB AP)/AB]*100. All measurements were performed in triplicate.

TNF-α = test: in vitro anti-inflammatory study, TNF-α ELISA; assay type: cell-based; conditions: LPS 400 ng/ml stimulation, RAW264.7 macrophage supernatant, FIG. 9
From the text: (§1) Embodiment 3: Au NCs-NAC cytotoxicity and protection of kidney cells by eliminating various reactive oxygen species/reactive nitrogen species, and the standard MTT method was used to evaluate the effect of Au NCs-NAC on the survival rate of 293T renal embryonic cells. Furthermore, ELISA (enzyme-linked immunosorbent assay) kits for TNF-α and IL-6 are adopted to evaluate the levels of inflammatory factors in the cells.
(§2) For in vitro anti-inflammatory studies, both macrophages and 293T renal embryonic cells were seeded into 96-well plates. Then, 293T renal embryonic cells were treated with 400 ng/ml lipopolysaccharide (LPS) for 1 h. Then, the supernatant of 293T renal embryonic cell culture was transferred to a 96-well plate to culture RAW264.7 macrophages overnight. Finally, the TNF-α/IL-6 ELISA kit was used to detect the concentrations of TNF-α and IL-6 in the RAW264.7 macrophage supernatant.

IL-6 = test: in vitro anti-inflammatory study, IL-6 ELISA; assay type: cell-based; conditions: LPS 400 ng/ml stimulation, RAW264.7 macrophage supernatant, FIG. 10
From the text: as §1, §2

[4] = tested on: glycerol-induced acute renal failure mice; test: glycerol-induced acute renal failure mice, serum creatinine and blood urea nitrogen; assay type: in vivo; conditions: 4 mg/kg injected 2 hours after glycerol, serum at 24 hours, versus phosphate buffer
Procedure: All experimental operations were performed in accordance with the animal use and care system approved by the Clinical Center Animal Care and Use Committee. Female athymic mice (six weeks, 20-25 g) were injected with 8 mL/kg 50% glycerol solution intramuscularly into the hind legs to establish a mice model of acute renal failure. After 2 hours, the small molecule drug acetylcysteine or Au NCs-NAC was injected.
Mice were randomly divided into 5 groups: (1) healthy mice injected with phosphate buffer; (2) healthy mice injected with Au NCs-NAC; (3) glycerol-induced acute renal failure mice injected with phosphate buffer; (4) glycerol-induced acute renal failure mice injected with Au NCs-NAC; (5) glycerol-induced acute renal failure mice injected with acetylcysteine in the same dose of Au NCs-NAC. Healthy mice and mice with glycerol-induced acute renal failure were euthanized 24 hours later. The blood of the mice was centrifuged to obtain serum, and the creatinine and blood urea nitrogen contents were measured. The phosphate buffer used for injection was 100 μL, the injection dose of Au NCs-NAC was 4 mg/kg, and the injection dose of acetylcysteine was 4 mg/kg.

For `CC(=O)N[C@@H](CS)C(=O)O` [acetylcysteine], the hydroxyl radicals eliminated [1] was 47.2%, the superoxide anions eliminated [2] was 6% and the “⋅ABTS+ eliminated (ABTS eliminating efficiency)” value [3] was 68.9%. For the same compound, the “production of inflammatory factor TNF-α” value (TNF-α) was “not able to achieve the same”, the “production of inflammatory factor IL-6” value (IL-6) was “not able to achieve the same” and the “serum blood urea nitrogen level” value ([4]; FIG. 11) was “cannot effectively reduce”. The serum creatinine level ([4]; FIG. 12) was “cannot effectively reduce”.
